Legend:
clinical = experiment: clinical; design: species or system healthy human adults; details: in vivo, po
in vivo = experiment: in vivo; design: species or system Male beagle dogs; details: dog, po
From the text: Water was given ad libitum.
Water was given ad libitum during the test period.
In this test, alginic acid gel beads prepared using the low viscosity alginic acid gel beads (IL2, Kimizu Chemicals) were used.

With CC(C)NCC(O)COc1cccc2[nH]ccc12 (stereo not shown) [Pindolol powder, pindolol] the MRT (clinical; human) was 3.82 ± 0.32 h, the Tmax (clinical; human) was about 1 h and the VRT (clinical) was 7.44 ± 0.54 h^2. It also gave an AUC at 6 h (in vivo; 2.5 mg/kg) of 238 ng·h/mL, an MRT at 6 h (in vivo; 2.5 mg/kg) of 1.74 h and an AUC at 12 h (in vivo; 5 mg/kg) of 311 ng·h/mL. It also gave an MRT at 12 h (in vivo; 5 mg/kg) of 1.98 h.

Source: patent US5302399A, “Slow-releasing pharmaceuticals prepared with alginic acid” (Snow Brand Milk Products Co., Ltd., priority 1988, dated 1994)
